Laboratory results: PubChem BioAssay AID330 (DTP/NCI, 2004)
“And” between values parts separate entries of the source, which are not always exact repeats. Equal values may be shown once. Inconclusive results and toxic doses are left out. How the source made its calls: active means survival T/C of 150% or more; inactive means T/C below 125% in these data.

Tested on: P388 leukemia ip, CD2F1 mice, survival T/C
Experiment: NCI In Vivo Anticancer Drug Screen. Data for tumor model P388 Leukemia (intraperitoneal) in CD2F1 (CDF1) mice
Details: endpoint: median survival time, higher = longer survival
Method in brief: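 Mice carrying the transplanted tumor received test compound or vehicle. Survival was recorded in each group, and the value is the treated-group measurement divided by that of the vehicle-treated control group.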

[1] = dose: 50.0 mg/kg/injection, schedule: Q01DX009 (ip), vehicle: saline with Tween-80
[2] = dose: 100.0 mg/kg/injection, schedule: Q01DX009 (ip), vehicle: saline with Tween-80
[3] = dose: 100.0 mg/kg/injection, schedule: Q04DX003 (ip), vehicle: saline
[4] = dose: 400.0 mg/kg/injection, schedule: Q04DX003 (ip), vehicle: saline
[5] = dose: 50.0 mg/kg/injection, schedule: Q01DX009 (ip), vehicle: saline
[6] = dose: 100.0 mg/kg/injection, schedule: Q01DX009 (ip), vehicle: saline
[7] = dose: 50.0 mg/kg/injection, schedule: Q01DX005 (ip), vehicle: Klucel (hydroxypropylcellulose) (HPC)
[8] = dose: 100.0 mg/kg/injection, schedule: Q01DX005 (ip), vehicle: Klucel (hydroxypropylcellulose) (HPC)
[9] = dose: 200.0 mg/kg/injection, schedule: Q01DX005 (ip), vehicle: Klucel (hydroxypropylcellulose) (HPC)

Measured: T/C

Cc1nc2nc(Cl)c(Cl)nc2[nH]1
inactive: dose: 25.0 mg/kg/injection, schedule: Q01DX009 (ip), vehicle: saline with Tween-80 100 % of control | [1] 104 % of control | [2] 104 % of control

Clc1ccccc1Nc1c2ccccc2nc2ccccc12
inactive: [3] 100 % of control | dose: 132.0 mg/kg/injection, schedule: Q04DX003 (ip), vehicle: suspension in saline 108 % of control | dose: 200.0 mg/kg/injection, schedule: Q04DX003 (ip), vehicle: suspension in saline 110 % of control | dose: 300.0 mg/kg/injection, schedule: Q04DX003 (ip), vehicle: suspension in saline 115 % of control | [4] 104 % of control

O=C(O)c1c[nH]c2cc(F)ccc2c1=O
inactive: [5] 103 % of control | [6] 95 % of control | dose: 200.0 mg/kg/injection, schedule: Q01DX009 (ip), vehicle: saline 96 % of control

COCC1(C)CCCC2(C)C1CCC13CCC(OC)CC12O3 (configuration not stated)
inactive: dose: 100.0 mg/kg/injection, schedule: Q01DX001 (ip), vehicle: saline 115 % of control | dose: 200.0 mg/kg/injection, schedule: Q01DX001 (ip), vehicle: saline 106 % of control | dose: 400.0 mg/kg/injection, schedule: Q01DX001 (ip), vehicle: saline 94 % of control

CS(C)(=O)=Nc1ccc(I)cc1
inactive: dose: 50.0 mg/kg/injection, schedule: Q04DX002 (ip), vehicle: Klucel (hydroxypropylcellulose) (HPC) 105 % of control | dose: 100.0 mg/kg/injection, schedule: Q04DX002 (ip), vehicle: Klucel (hydroxypropylcellulose) (HPC) 102 % of control and 104 % of control and 105 % of control | [3] 98 % of control | dose: 200.0 mg/kg/injection, schedule: Q04DX002 (ip), vehicle: Klucel (hydroxypropylcellulose) (HPC) 101 % of control and 113 % of control and 119 % of control | dose: 200.0 mg/kg/injection, schedule: Q04DX003 (ip), vehicle: saline 100 % of control | dose: 400.0 mg/kg/injection, schedule: Q04DX002 (ip), vehicle: Klucel (hydroxypropylcellulose) (HPC) 101 % of control and 105 % of control and 120 % of control | [4] 94 % of control

Cc1cc(Cl)c(C)c(Cl)c1Cl
inactive: dose: 100.0 mg/kg/injection, schedule: Q04DX003 (ip), vehicle: saline with Tween-80 95 % of control | dose: 200.0 mg/kg/injection, schedule: Q04DX003 (ip), vehicle: saline with Tween-80 95 % of control | dose: 400.0 mg/kg/injection, schedule: Q04DX003 (ip), vehicle: saline with Tween-80 91 % of control

C[CH2][Sn]([CH2]C)[S]CC(N)C(=O)O (configuration not stated)
inactive: dose: 3.75 mg/kg/injection, schedule: Q01DX005 (ip), vehicle: Klucel (hydroxypropylcellulose) (HPC) 110 % of control | dose: 7.5 mg/kg/injection, schedule: Q01DX005 (ip), vehicle: Klucel (hydroxypropylcellulose) (HPC) 120 % of control

CCCCC(=O)C(=O)c1ccc(O)c(C)c1O
inactive: [1] 96 % of control | [2] 93 % of control | dose: 200.0 mg/kg/injection, schedule: Q01DX009 (ip), vehicle: saline with Tween-80 96 % of control

c1ccc(N/N=C2/c3ccccc3CC23OC3c2ccccc2)cc1 (configuration not stated)
inactive: dose: 25.0 mg/kg/injection, schedule: Q01DX009 (ip), vehicle: Klucel (hydroxypropylcellulose) (HPC) 90 % of control | dose: 50.0 mg/kg/injection, schedule: Q01DX009 (ip), vehicle: Klucel (hydroxypropylcellulose) (HPC) 90 % of control | dose: 100.0 mg/kg/injection, schedule: Q01DX009 (ip), vehicle: Klucel (hydroxypropylcellulose) (HPC) 88 % of control | dose: 200.0 mg/kg/injection, schedule: Q01DX009 (ip), vehicle: Klucel (hydroxypropylcellulose) (HPC) 87 % of control | dose: 400.0 mg/kg/injection, schedule: Q01DX009 (ip), vehicle: Klucel (hydroxypropylcellulose) (HPC) 88 % of control

Cc1cc(CC(O)(c2ccccc2)c2ccccc2)nc2[nH]c(=O)ccc12
inactive: dose: 25.0 mg/kg/injection, schedule: Q01DX005 (ip), vehicle: Klucel (hydroxypropylcellulose) (HPC) 97 % of control | [7] 103 % of control | [8] 98 % of control | [9] 96 % of control

CC1CCC2C(C)C3C(CC4C5CCC6CC(O)CCC6(C)C5CCC43CO)N2C1 (configuration not stated)
inactive: [7] 101 % of control | [8] 108 % of control | [9] 113 % of control

CO[C@H]1[C@H]2OC(C)(C)O[C@H]2O[C@H]1/C=C1\CC(=O)NC1=O
inactive: [5] 111 % of control | dose: 50.0 mg/kg/injection, schedule: Q01DX009 (ip), vehicle: suspension in saline 96 % of control | [6] 116 % of control | dose: 100.0 mg/kg/injection, schedule: Q01DX009 (ip), vehicle: suspension in saline 104 % of control | dose: 200.0 mg/kg/injection, schedule: Q01DX009 (ip), vehicle: suspension in saline 110 % of control

Cc1cc(CO)cc(CO)c1
inactive: dose: 100.0 mg/kg/injection, schedule: Q01DX001 (ip), vehicle: saline with Tween-80 104 % of control | dose: 200.0 mg/kg/injection, schedule: Q01DX001 (ip), vehicle: saline with Tween-80 101 % of control | dose: 400.0 mg/kg/injection, schedule: Q01DX001 (ip), vehicle: saline with Tween-80 100 % of control

COC(=O)Nn1cc(C(C(C)=O)C(C)=O)c(C(C)=O)c1C
inactive: [7] 99 % of control | [8] 89 % of control

CCCCCCCCCCCC[N+]1(CCCCCCCCCCCC)CCCC(C)C1 (configuration not stated)
inactive: dose: 0.75 mg/kg/injection, schedule: Q01DX009 (ip), vehicle: Klucel (hydroxypropylcellulose) (HPC) 113 % of control
